Experiments:
PRRSV strain VR-2332 [1] = assay: PRRSV titration assay of culture media of infected PAMs; type: cell-based; settings: 15 μM; for log reduction of viral titer: pre- and post-inoculation treatment; for inhibitory function in PRRSV infection assay compared with B7: qRT-PCR and titration (FIG. 7B, 7C)
Protocol: (§1) For PRRSV infection of PAM cells, PAMs were seeded one day prior to infection. […] Cells were inoculated with VR-2332, SDSU73, NADC30 or Lelystad PRRSV at MOI=0.1 for 1 h. The 24 h cell medium supernatant was stored at −80° C. until use.
For PRRSV titration assay, MARC145 cells were seeded in 48-well plates and grew to ˜80% density before inoculation. Viral supernatants were prepared by 10-fold serial dilution, and 100 μl of the dilutions was added per well in six replicates. Inocula were removed from cells after 2 h and replaced with 0.5 mL of DMEM supplemented with 2% FBS, 2 mM glutamine, 0.1 mM MEM non-essential amino acids, 50 U/mL penicillin, and 50 μg/mL streptomycin (Invitrogen). Cells were cultured at 37° C. for 6 days and any cytopathic effects were observed and recorded. The PRRSV titer was calculated using the Reed and Muench method and expressed as median tissue culture infectious dose (TCID50/mL). Reed and Muench, Am. J. Epidemiol. 27(3): 493-497 (1938).

[2] = molecular target: T1, protein-protein interactions (PPI) between CD163-SRCR5 domain and PRRSV GP2a protein (Sus scrofa, UniProt Q2VL90); assay: BiFC assay between SRCR5-VN and GP2a-VC proteins; type: cell-based, porcine CD163; PRRSV; settings: for inhibition of CD163-SRCR5/GP2a PPI in the BiFC assay, B7 analogues: HEK293T cells, DMSO as Ctrl, concentration not given; for inhibitory function in BiFC assay compared with B7: methyl and/or fluoro groups removed from the benzenesulfonamide moiety
T1 construct: The amplified cDNA fragments of SRCR2 or SRCR5 were subcloned into the pBiFC-VN155(I152L) vector; Myc tag (from vector backbone pMyc-CMV); expressed in transfected cells; host or cells: HEK293T
T1 sequence (Q2VL90 477-577): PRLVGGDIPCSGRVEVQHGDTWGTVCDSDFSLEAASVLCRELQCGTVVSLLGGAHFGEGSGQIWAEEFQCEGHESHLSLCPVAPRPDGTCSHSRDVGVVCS
Description: The N-terminus and C-terminus of the truncated Venus-I152L were inserted into vector backbone pMyc-CMV and pCMV-HA, constituting commercial plasmids pBiFC-VN155(I152L) and pBiFC-VC155, respectively (Addgene, Watertown, MA, USA). See Kodama and Hu, Biotechniques 49:793-805 (2010). cDNA fragments for the scavenger receptor cysteine-rich domain 2 (SRCR2) and SRCR5 of porcine CD163 receptor, and for PRRSV glycoproteins GP2a and GP4 were amplified by RT-PCR. The amplified cDNA fragments of SRCR2 or SRCR5 were subcloned into the pBiFC-VN155(I152L) vector digested with EcoRI/BglII. For constructions of GP2a and GP4 fusion proteins, cDNA fragments encoding GP2a or GP4 were subcloned into the pBiFC-VC155 vector digested with EcoRI/BglII. All plasmid clones were verified by DNA Sanger sequencing.
HEK293T cells cultured in 12-well plates were transfected with appropriate plasmids for each BiFC assay using FuGENE® 6 (Promega, Madison, WI, USA). After 5 h, various concentrations of chemical compounds were added to the culture media. DMSO was used as the vehicle control. Fluorescence images of treated cells at 24 h after plasmid transfection were captured using an inverted Nikon fluorescence microscope. Fluorescence intensity of treated cells was measured by ImageJ.
Using the previously described BiFC vector based on the fragmented venus protein (VN-155[I152L], hereafter named VN) and (VC-155, hereafter named VC), fusion protein constructs were established between the porcine CD163 protein SRCR5 or SRCR2 domain and VN, and between the PRRSV minor glycoproteins (GP2a or GP4) and VC (FIG. 1A, 2). See Kodama et al., Biotechniques 49(5): 793-805 (2010). These plasmids were co-expressed in HEK293T cells to evaluate the PPIs between the SRCR5 domain and GP2a or GP4.
The BiFC assays was tested to determine whether it could identify small molecules with potential to block the protein-protein interactions between CD163 and PRRSV. A customized virtual screen of a library of commercially available small molecules was performed with the AtomNet® model at a region centered around R561 (FIG. 3) based on the available 3-D protein structure of porcine CD163-SRCR5 domain, and 74 compounds predicted to target this potential binding site were procured. Ma et al., J. Virol. 91(3): e01897-16 (2017). These compounds were tested using the BiFC assay, to evaluate their ability to inhibit the PPI between GP2a and SRCR5. Plasmids were co-transfected in HEK293T cells, 4 h later, compounds were individually administered to cells at 5 μM. Twenty-four hours later, images were taken under a fluorescence microscope and the fluorescence quantified. […] Until these studies, there has been no known biological activity reported for compound B7.

PRRSV strain VR-2332 [3] = assay: qRT-PCR for PRRSV RNA in infected PAMs; type: cell-based; settings: 15 μM; VR-2332; 24 h
Protocol: Total RNA was extracted from PAMs infected with PRRSV using RNeasy Mini Kit (Qiagen, Germantown, MD) according to the manufacturer's instruction. RNA concentrations were measured using a Nanodrop spectrophotometer (Thermo Fisher Scientific). GAPDH was used as a housekeeping gene for gene expression normalization. Data were processed with the software associated with ABI 7500.
as §1

Question: What does the source list for `Cc1ccc(S(=O)(=O)Nc2nc3ccccc3nc2Nc2cccc(S(=O)(=O)N3CCCCC3)c2)cc1` [Compound B7-A4, 4-methyl-N-[3-(3-piperidin-1-ylsulfonylanilino)quinoxalin-2-yl] benzenesulfonamide]?
Answer: log reduction of viral titer (PRRSV strain VR-2332 [1]; 24 h): 2.8 log; inhibition of CD163-SRCR5/GP2a PPI in the BiFC assay, B7 analogues [2]: does not eliminate these compounds' ability to inhibit

Question: With `Cc1ccccc1S(=O)(=O)Nc1nc2ccccc2nc1N1CCOCC1` [Compound B7-A6, 2-methyl-N-(3-morpholin-4-ylquinoxalin-2-yl) benzenesulfonamide] as the molecule, how does the “inhibition of CD163-SRCR5/GP2a PPI in the BiFC assay, B7 analogues” value (from here on “inhibition … in the BiFC assay, B7 analogues”) [2] read?
Answer: completely blocked their ability to inhibit

Question: For `Nc1cccc(S(=O)(=O)N2CCOCC2)c1` [Compound B7-A7, 3-(morpholinosulfonyl)aniline], which “inhibition of PRRSV infection of PAMs (titration of culture media), B7 analogues” value (PRRSV strain VR-2332 [1]; 24 h) is on record?
Answer: none of these 2 compounds inhibited PRRSV infection of PAMs

Question: For `O=S(=O)(Nc1nc2ccccc2nc1Nc1cccc(S(=O)(=O)N2CCOCC2)c1)c1ccccc1` [Compound B7-A3, N-[3-(3-morpholin-4-ylsulfonylanilino)quinoxalin-2-yl] benzenesulfonamide], which “log reduction of viral titer” value (PRRSV strain VR-2332 [1]; 24 h) is on record?
Answer: 1.2 log

Question: And the “inhibitory function in PRRSV infection assay compared with B7” value (PRRSV strain VR-2332 [1])?
Answer: weakened the compound's inhibitory function

Question: What about the “inhibitory function in BiFC assay compared with B7” value [2] of the same molecule?
Answer: weakened the compound's inhibitory function

Question: For `Cc1ccc(S(=O)(=O)Nc2nc3ccccc3nc2N2CCOCC2)cc1` [Compound B7-A5, 4-methyl-N-(3-morpholinoquinoxalin-2-yl)benzenesulfonamide], which “inhibition … in the BiFC assay, B7 analogues” value [2] is on record?
Answer: completely blocked their ability to inhibit

Question: What about the “PRRSV RNA level in treated PAMs (qRT-PCR), B7 analogues” value (PRRSV strain VR-2332 [3]) of the same molecule?
Answer: failed to inhibit PRRSV RNA level

Question: What does the source list for `O=S(=O)(Nc1nc2ccccc2nc1Nc1ccc(Cl)c(S(=O)(=O)N2CCOCC2)c1)c1ccccc1` [Compound B7-A1, N-[3-(4-chloro-3-morpholin-4-ylsulfonylanilino)quinoxalin-2-yl] benzenesulfonamide]?
Answer: log reduction of viral titer (PRRSV strain VR-2332 [1]; 24 h): 2.2 log; inhibitory function in PRRSV infection assay compared with B7 (PRRSV strain VR-2332 [1]): weakened the compound's inhibitory function; inhibitory function in BiFC assay compared with B7 [2]: weakened the compound's inhibitory function

Question: For `Cc1ccccc1S(=O)(=O)Nc1nc2ccccc2nc1Nc1ccc(S(=O)(=O)N2CCOCC2)cc1` [Compound B7-A2, 2-methyl-N-[3-(4-morpholin-4-ylsulfonylanilino)quinoxalin-2-yl] benzenesulfonamide], which “log reduction of viral titer” value (PRRSV strain VR-2332 [1]; 24 h) is on record?
Answer: 2.4 log

Question: And the “inhibitory function in PRRSV infection assay compared with B7” value (PRRSV strain VR-2332 [1])?
Answer: weakened the compound's inhibitory function

Question: And the “inhibition … in the BiFC assay, B7 analogues” value [2]?
Answer: does not eliminate these compounds' ability to inhibit

Question: And the “inhibitory function in BiFC assay compared with B7” value [2]?
Answer: weakened the compound's inhibitory function

— patent publication US12569495B2, “Inhibitors of porcine reproductive and respiratory syndrome virus” (UNIVERSITY OF CONNECTICUT, priority 2020, dated 2026)
